According to patent publication US7955838B2, “Methods and device for adhesive control of internal cell organisation” (Institut Curie, priority 2003, dated 2011):

Tested on: HeLa cells stably expressing centrin1-GFP
Assay: Nocodazole treatment of premitotic cells on [L] fibronectin micropatterns (centrosome separation, cell rounding, spindle orientation)
Type: cell-based, human
Conditions: for Distribution of spindle orientations after nocodazole wash-out: after wash-out of 10^−7 M nocodazole, [L] patterns, versus non-treated cells
Description: HeLa, human epithelial cells, stably expressing centrin1-GFP (Piel et al. J. Cell Biol. 149, 317-329 (2000), were cultured in Dulbecco Modified Eagle Medium with 10% foetal calf serum, 1% penicillin and streptomycin, and 1% glutamine at 37° C. Cells were synchronised using a double thymidine block and then removed from their flask using […], 10 minutes at 37° C. After removing the […] by centrifugation, cells were resuspended in DMEM with 1% FCS and deposited on the printed coverslip at a density of 10^4 cells/cm^2. The inventors used an inverted Leica DMIRBE microscope with an heated and motorized stage combined with a home-made plastic cell chamber to hold the printed glass coverslip, which was covered by a porous membrane allowing CO2 buffering at pH-7.4. Metamorph software (Universal Imaging) was used for image acquisition. Numerous cell divisions were followed using a time-lapse phase contrast on a multi-fields acquisition at a frame rate of one picture every 3 minutes with a 10× magnitude objective. Centrosome movements were followed during mitosis with a 63× apochromat objective lens (Leica) using fluorescent Z acquisitions through a green filter and a phase contrast picture of the cell bottom every 5 minutes. A software has been developed. This software was able to automatically recognise a single fluorescent micropattern within a field and detect the presence of a single cell attached to it. Individual cell divisions were extracted from the 10× phase contrast time-lapse recordings and every picture automatically segmented using a wavelet decomposition and fitted with an ellipse (FIG. 1b). The moment of cell elongation in anaphase was precisely detected, as the shape factor, defined as the ellipse length ratio, suddenly dropped from more than 0.9 to less than 0.6 (FIG. 1c). The angle between the major axis of the ellipse, corresponding to spindle orientation, and the vertical reference of the pattern oriented as shown on FIG. 2 was then recorded. The position of the centre of the round mitotic cell with respect to the pattern was also automatically recorded 6 minutes before anaphase.[…]. The mechanisms by which the premitotic actin network is remodeled during mitotic cortical retraction and the correlative formation of actin-rich retraction fibers are not fully understood. In order to address whether spindle assembly had to take place during the remodelling of the actin network to be correctly oriented, centrosomes were prevented from separating during cell retraction on [L] patterns by treating premitotic cells with 10^-7 M nocodazole during one hour. […] After nocodazole washout, centrosomes separated and formed a bipolar spindle (FIG. 4C). […] RFs are good candidates for guiding spindle orientation as they are maintained despite nocodazole treatment.

[1] = 10^−7 M nocodazole during one hour, premitotic cells on [L] patterns

For `COC(=O)Nc1nc2ccc(C(=O)c3cccs3)cc2[nH]1` [nocodazole], the “Effect on cell rounding” value [1] was “did not block cell rounding”, the “Effect on mitosis / centrosome separation” value [1] was “blocked cells in metaphase with unseparated centrosomes” and the “Distribution of spindle orientations after nocodazole wash-out” value was “still preferentially orientated parallel to the hypotenuse of the triangle”. The “Distribution of spindle orientations after nocodazole wash-out” value (listed as NZ) was “spindles are still able to mainly orient in round cell bodies as in control cells” and the “Retracting fibers (RFs) under nocodazole treatment” value (nocodazole-treated mitotic cells on [L] patterns) was “maintained”.
